Measurements taken from patent publication US11241031B2, “Rebaudioside A and stevioside with improved solubilities” (SWEET GREEN FIELDS USA, LLC, priority 2014, dated 2022).

Assays:
[1] = Taste profile (0-5 scale): different salt conditions (Example 11); parameters: species or system human; conditions: control as named at the place
Experimental: To evaluate the effect of different salt conditions on the resulting taste profiles relative to a control sample (i.e., 059 containing no salt), raw materials were mixed with pure water as indicated in Tables 28-31 to obtain the aqueous solutions as indicated. Taste profiles were determined as described above in Examples 9 and 10.

[2] = Taste profile (0-5 scale): adding additional steviol glycosides (Example 12); parameters: species or system human; conditions: added SG at 1.9 wt %; control without any added SGs
Experimental: To evaluate the effect of adding additional SGs on taste profiles relative to a control sample, raw materials were mixed with pure water as indicated in Table 32 to obtain the aqueous solutions as indicated. Taste profiles were determined as described above in Examples 9 and 10.

[3] = Evaluation of other sweeteners and inorganic salts on the taste profile (Example 7); parameters: species or system human; conditions: for taste profile results, potassium chloride vs sodium chloride: Test 1, salt as component of the composition
From the text: Evaluation of the Effects of Other Sweeteners and Inorganic Salts on the Taste Profile of the Composition
Test 1: Evaluation of Compositions Comprising Sodium Chloride and Potassium Chloride
Test 2: Evaluation of Compositions Comprising Various Sweeteners

[4] = Double-blind Flash sensory analysis of hydrolyzed D-glucose on RA/RB and RA97; parameters: species or system human; scale not given here; conditions: about 300 ppm in distilled H2O, A = 9.6 ppm, B = 4.8 ppm reacted glucose
Experimental: Experiment 2: Testing the Sensory Effects of Hydrolyzed D-glucose on RA/RB and RA97
1. To replicate the composition of a dried RA/RB hydrolyte treated with 0.625 mL of reagent, 5 g of RA/RB using a 61:39 ratio of RA97:RB was prepared, making sure to mix the sample thoroughly to ensure homogenization. (3.05 g RA97+1.95 g RB=5 g RA/RB blend). […] HPLC was used to confirm replication.
2. The amount of liquid D-glucose from each vial to be equivalent to 0.96 mg D-glucose from vial A/0.48 mg reacted D-glucose from vial B (representing the reaction product from use of 300 ppm of Stevia reacted with the highest and mid-level amount of 20% NaOH (0.625 mL and 0.3215 mL respectively) would be:
3. The following solution sets were created:
i. 299.04 mg RA/RB blend+668.5µL D-Glucose solution vial A+distilled H2O to a final volume of 1,000 mL (299.04 ppm RA/RB+9.6 ppm reacted glucose).
ii. 299.52 mg RA/RB blend+668.5µL D-Glucose solution vial B+distilled H2O to a final volume of 1,000 mL (299.52 ppm RA/RB+4.8 ppm reacted glucose).
iii. 300 mg RA/RB blend+distilled H2O to a final volume of 1,000 mL (300 ppm RA/RB).
i. 299.04 mg RA97+668.5µL D-Glucose solution vial A+distilled H2O to a final volume of 1,000 mL (299.04 ppm RA97+9.6 ppm reacted glucose).
ii. 299.52 mg RA97+668.5µL D-Glucose solution vial B+distilled H2O to a final volume of 1,000 mL ([…]+4.8 ppm reacted glucose).
iii. 300 mg RA97+distilled H2O to a final volume of 1,000 mL (300 ppm RA97).
Each set was tasted using double-blind Flash sensory analysis (number of analysts=2).

[5] = cited from earlier work
[6] = Taste profiling of sample formulations (Example 4, Test 1 and Test 2); parameters: species or system human; conditions: Test 2; added to RA/RB solution
Experimental: The samples in lines 2, 4, and 8 of FIG. 1 (0.0625, 0.25, and 0.5625 20% NaOH added) were prepared by mixing raw materials and then formulated in to solutions.
Mixed product: prepared by simply mixing raw materials according to the ratio of Lot #15-0100.

O=C([O-])[O-].[K+].[K+] [potassium carbonate]
taste profile relative to the control sample [1]: not significantly affected

rebaudioside C [Reb-C]
taste profile relative to control sample 10-1 [2]: not significantly affected

[Cl-].[K+] [potassium chloride]
taste profile results, potassium chloride vs sodium chloride [3]: Substantially same results

C=C1C[C@@]23CC[C@H]4[C@@](C)(CCC[C@@]4(C)C(=O)O[C@@H]4O[C@H](CO)[C@@H](O)[C@H](O)[C@H]4O)[C@@H]2CC[C@]1(O[C@@H]1O[C@H](CO)[C@@H](O)[C@H](O[C@@H]2O[C@H](CO)[C@@H](O)[C@H](O)[C@H]2O)[C@H]1O[C@@H]1O[C@H](CO)[C@@H](O)[C@H](O)[C@H]1O)C3 [RA97, Rebaudioside A]
T#10 Bitter [4]: 2.3 | T#10 Linger [4]: 5 | T#10 Ov. Like [4]: 6 | T#10 Sugar Like Body [4]: 3.2 | T#10 Sweetness [4]: 5.8 | T#11 Bitter [4]: 5 | T#11 Dry [4]: 5.9 | T#11 Linger [4]: 5 | T#11 Ov. Like [4]: 6.5 | T#11 Sugar Like Body [4]: 4.4 | T#11 Sweetness [4]: 6.8 | solubility ([5]; in water at 25° C.): 0.8%

[Cl-].[Na+] [sodium chloride]
effect of added component on the taste profile [6]: improved the “aftertaste” profile | taste profile results, potassium chloride vs sodium chloride [3]: Substantially same results

C=C1C[C@@]23CC[C@H]4[C@@](C)(CCC[C@@]4(C)C(=O)O[C@@H]4O[C@H](CO)[C@@H](O)[C@H](O)[C@H]4O)[C@@H]2CC[C@]1(O[C@@H]1O[C@H](CO)[C@@H](O)[C@H](O)[C@H]1O[C@@H]1O[C@H](CO)[C@@H](O)[C@H](O)[C@H]1O)C3 [stevioside]
taste profile relative to control sample 10-1 [2]: not significantly affected | solubility / dissolution (in words) ([5]; powder in water at 25° C.): very low solubility

O=C(CO)[C@@H](O)[C@H](O)[C@H](O)CO [fructose]
effect of sweetener on taste profile relative to glucose ([3]; Test 2, sweetener as component of the composition): slightly lower than glucose

[Ca+2].[Cl-].[Cl-] [calcium chloride]
taste profile relative to the control sample [1]: not significantly affected

O=C[C@H](O)[C@@H](O)[C@H](O)[C@H](O)CO [glucose]
effect of added component on the taste profile [6]: improved the “sugar like” profile

O=S(=O)([O-])[O-].[Mg+2] [magnesium sulfate]
taste profile relative to the control sample [1]: not significantly affected

C=C1C[C@@]23CC[C@H]4[C@@](C)(CCC[C@@]4(C)C(=O)O)[C@@H]2CC[C@]1(O[C@@H]1O[C@H](CO)[C@@H](O)[C@H](O)[C@H]1O[C@@H]1O[C@H](CO)[C@@H](O)[C@H](O)[C@H]1O)C3 [steviolbioside]
taste profile relative to control sample 10-1 [2]: not significantly affected
